Read-outs that look alike come from different tables or passages of the source.
How the values were obtained:
winter barley (HORVW) = assay: Field trial, crop injury in winter barley after early post-emergence spray; assay type: in vivo, Hordeum vulgare; details: post-emergence BBCH 11, 140 L/ha, ethofumesate 250 g/ha, combination 250 + 100 g/ha, visual rating vs untreated control
Experimental: (§1) In field trials the interaction of (i) ethofumesate and (ii) the safener mefenpyr-diethyl concerning cereal crop injury was investigated.
(§2) Plots of different verities of wheat and barley crops in the field were sprayed with an application volume of 140 L/ha with a handheld spray boom.
(§3) Application of the application spray compostions was carried out early in each case post-emergence at BBCH growth stage 11 (first leaf unfolded) of the respective wheat or barley crops.
The three different winter barley (HORVW) varieties tested were CALIFORNIA, CIERZO and KWS ORBIT.
(§4) The maximum crop damage and the final crop damage were in each case visually rated on a percentage scale in relation to the untreated control (100%=all plants dead, complete crop kill; 50%=green plant biomass reduced by 50%, and 0%=like control plot, no crop injury).
(§5) The main symptoms of crop damage observed were thinning and stunting.

[1] = test system: volunteer wheat (Triticum aestivum L.); details: cited from earlier work
[2] = test system: annual bluegrass (Poa annua L.); details: pre-emergence or early post-emergence at 0.8 to 4.5 kg/ha; Italian ryegrass seed fields; cited from earlier work
barley and wheat = details: greenhouse studies; cited from earlier work
[3] = test system: soft winter wheat (TRZAW); assay: Field trial, crop injury in soft winter wheat after early post-emergence spray; assay type: in vivo, Triticum aestivum; details: post-emergence BBCH 11, 140 L/ha, ethofumesate 250 g/ha, combination 250 + 100 g/ha, visual rating vs untreated control
Experimental: as §1, §2, §3
The four different soft winter wheat (TRZAW) varieties tested were ARTHUR NICK, ELIXER, PISTOLO and RUBISKO.
as §4, §5

[4] = test system: cereral crops such as wheat or barley; assay: Own experiments, safening effect of mefenpyr-diethyl used with flufenacet; assay type: in vivo; details: used with flufenacet (WSSA group 15); cereal crops such as wheat or barley

| SMILES | Final crop damage in % (winter barley (HORVW); Variety CALIFORNIA) | Maximum crop damage in % (winter barley (HORVW); Variety CALIFORNIA) | Final crop damage in % (winter barley (HORVW); Variety CIERZO) | Maximum crop damage in % (winter barley (HORVW); Variety CIERZO) | Final crop damage in % (winter barley (HORVW); Variety KWS ORBIT) | Maximum crop damage in % (winter barley (HORVW); Variety KWS ORBIT) | control of volunteer wheat ([1]; 1.7 kg/ha or more, wheat in the one- to three-leaf stage) | control of volunteer wheat ([1]; applied pre-emergence soon after planting or at the end of November to wheat in the four-leaf to four-tiller stage) | control of annual bluegrass [2] | susceptibility of barley and wheat to soil residues of ethofumesate relative to corn (barley and wheat) | Final crop damage in % ([3]; Variety ARTUR NICK) | Maximum crop damage in % ([3]; Variety ARTUR NICK) | Final crop damage in % ([3]; Variety ELIXER) | Maximum crop damage in % ([3]; Variety ELIXER) | Final crop damage in % ([3]; Variety PISTOLO) | Maximum crop damage in % ([3]; Variety PISTOLO) | Final crop damage in % ([3]; Variety RUBISKO) | Maximum crop damage in % ([3]; Variety RUBISKO) | safening effect [4] |
| --- | --- | --- | --- | --- | --- | --- | --- | --- | --- | --- | --- | --- | --- | --- | --- | --- | --- | --- | --- |
| CCOC1Oc2ccc(OS(C)(=O)=O)cc2C1(C)C (stereo not shown) [Ethofumesate, 2-ethoxy-2,3-dihydro-3,3-dimethylbenzofuran-5-yl methanesulfonate] | 12.5% | 25% | 19.7% | 28% | 25.0% | 45% | eliminated the wheat | not eliminated | eliminated annual bluegrass | about 10 times | 11.6% | 16% | 28.3% | 63% | 14.0% | 24% | 13.7% | 30% |  |
| CCOC(=O)C1=NN(c2ccc(Cl)cc2Cl)C(C)(C(=O)OCC)C1 (stereo not shown) [mefenpyr-diethyl, ethyl 1-(2,4-dichlorophenyl)-5-(ethoxycarbonyl)-5-methyl-2-pyrazoline-3-carboxylate] |  |  |  |  |  |  |  |  |  |  |  |  |  |  |  |  |  |  | does not have a safening effect |

Source: US20240276986A1, “Compositions With Ethofumesate And A Safener” (BAYER AKTIENGESELLSCHAFT, priority 2021, published 2024)
